This is an account of results in paper PMC8512853, “Synthesis, Bioactivity, Pharmacokinetic and Biomimetic Properties of Multi-Substituted Coumarin Derivatives” (Molecules, 2021).

Data set [1] in a line: Hydroxyl (HO•) free radical scavenging assay (competition with DMSO). An excerpt:
The hydroxyl (HO^•) free radical is considered as the most toxic and reactive radical among the ROS, leading to cellular or protein damage, membrane destruction, and even to cellular death when encountered in excess concentration. In this context, the evaluation of the hydroxyl radical scavenging activity of the coumarin analogues was essential. Hydroxyl radicals are mainly produced by the Haber–Weiss reaction in the presence of iron or copper ions. In this protocol, iron-EDTA solution, which catalyzes the autooxidation of ascorbic acid, was used as the hydroxyl radical generation system. In general, the hydroxyl radicals formed oxidize the DMSO to form formaldehyde. The reaction involves the initial interaction of DMSO with the hydroxyl radicals to give methyl radicals, with the final product being formaldehyde, which is determined by Nash method. The intensity of the yellow solution formed was measured at 412 nm against a reagent blank.
For the evaluation of hydroxyl radical scavenging ability, the protocol described by Kontogiorgis et al. was used. In short, each sample was tested in quadruplicate (A, B, C, D). For A and B, 10 μL of coumarin analogs diluted in DMSO (100 mM) were added; for C and D were the respective blanks. Standards (containing DMSO solution) and blanks were all prepared in a similar manner; to the latter an equal amount (10 µL) of solvent was added instead of the tested analogues. According to the protocol described by Klein et al., standard solutions of EDTA, FeCl3, ascorbic acid, and buffer solution (pH 7.4) were also added to each of the tested mixtures. All mixtures were incubated at 37 °C for 30 min, and then 1 mL of Nash solution and […] of CCl3COOH solution were added. After a 10min incubation at 60 °C to allow the formation of the yellow mixture, the absorbance was measured at […].
The results were calculated as performance percentages in relation to the respective standards and blanks according to the following Equation (4):(4) % Scavenging ability= Mean OD(A+B)−Mean OD(C+D)/Mean OD(A+B)

The nature of data set [2]: MTT cell viability assay, HaCaT. It counts as cell-based, human. The settings on record: human, HaCaT cells, 100 μΜ, 24 h. An excerpt:
The MTT assay (3- [4,5-dimethylthiazol-2-yl] -2,5 diphenyl tetrazole) is based on the conversion of MTT to formazan crystals by living cells, which determines mitochondrial activity. Since for most cell populations total mitochondrial activity is related to the number of viable cells, this assay is widely used to measure the in vitro cytotoxic effects of drugs on various cell lines or primary cells. The principle of the MTT assay is that for most viable cells the mitochondrial activity is stable, and therefore, an increase or decrease in the number of viable cells is linearly related to mitochondrial activity. The mitochondrial activity of the cells is reflected by the conversion of the MTT tetrazole salt to formazan crystals (bright purple), which can be solubilized (in this protocol with DMSO) for homogeneous measurement. Thus, any increase or decrease in the number of viable cells can be detected by measuring the formazan concentration reflected in the optical density (OD) measurement at 540 nm with a reference absorption of 720 nm.
All the compounds were tested for their cytotoxic activity against blank and control samples in the human epidermal keratinocyte line (HaCaT), at the concentration of 100 μΜ, and the results are presented in Table 4.
(§1) This protocol was used for the evaluation of cell viability and all the cell lines. It must be noted that this assay describes the count of cells that remain alive after the treatment. For the experimental procedure a standard solution of MTT 1mg/mL in PBS was prepared which after filtration ([…] filter (Millipore, Carrigtwohill, Ireland)) was stored in the dark (4–8 °C) until use. In a 96-well plate, HaCaT, A549 and A375 cells were seeded in a number of 30 × 10^4 cells/well for each evaluation series respectively. The cells were incubated (37 °C, 5% CO2) for 24 h, followed by the addition of the tested analogues (100 μM, diluted in DMEM) and another 24-h incubation. Next, appropriate amount of MTT was added in the tested wells and the plate returned to the incubator for the next 4 h for the formation of the formazan crystals. The formazan crystals were then redissolved by adding DMSO (100 μL) and stirring lightly for 40 min, after which the absorbance was measured in a plate reader at 540 nm with a reference absorbance of 720 nm.
(§2) All samples were tested in triplicate, against a control (only cells), blank (no cells), and positive control (100 μM standard silibinin solution was used as a “cell-killing” standard).
(Tetrazolium assays rely on reduction of a dye to a coloured formazan, in cell work by metabolically active cells.)

The subject of data set [3] is A549 cells. Kind of data set: MTT cytotoxicity assay, A549. It counts as cell-based, human. The settings on record: Homo sapiens; A549, 100 μΜ, 24 h; read-out: Cell Toxicity A549 % (100 μΜ). On the procedure: Furthermore, the coumarin compounds synthesized in this study were also evaluated for their cytotoxicity against A549 (adenocarcinomic human alveolar basal epithelial cells) and A375 (human melanoma) cell lines.
as §1, §2

`Cc1c(-c2ccc(O)cc2)c(=O)oc2ccc(Cl)cc12` [Compound 4j, 6-chloro-3-(4-hydroxyphenyl)-4-methyl-chromen-2-one]: the “HO^• % (100 μΜ) scavenging” value in data set [1] is recorded as 100%. The viability at 24 h, 100 μM in data set [2] was determined as 73%. The cytotoxicity at 100 µM in data set [3] was found to be 33.5%.
As to `Cc1c(-c2ccc(O)cc2)c(=O)oc2c(Br)cc(Br)cc12` [Compound 4k, 6,8-dibromo-3-(4-hydroxyphenyl)-4-methyl-chromen-2-one], in data set [1], the “HO^• % (100 μΜ) scavenging” value turned out to be 100%. In addition, in data set [2], the viability at 24 h, 100 μM stood at 100%. The cytotoxicity at 100 µM in data set [3] was 66.5%.

Broadly, the viability is the share of living cells, or the viability signal relative to a control.
